The melting point is the temperature of the solid-liquid transition.

Results on eight compounds are retold here after US20090253654A1 (priority 2005, published 2009).

One data set can be described thus: in vivo. The settings on record: for Co (Brain), highest concentration achieved in mouse brain: i.v. injection of 3 mg/kg; for Kp: in vivo. The method, then:
FIG. 5: Pharmacokinetics of pro-galantamine Gln-1062 (3 mg/kg) in the mouse. […] FIG. 5b is an excerpt (“zoom”) of FIG. 5a, showing the concentration range between 0.00 and 1.00 μg/g (substance/body weight) more in detail.
Co is the highest pro-galantamine concentration (ng/ml) achieved in mouse brain after i.v. injection of 3 mg/kg of pro-galantamine. R-Pro is the brain-to-blood concentration ratio of pro-galantamine, R-Gal that of galantamine under these experimental conditions. For comparison, Co and R-Gal are also provided for i.v. injection of the same amount of galantamine.
Determination of the pharmacokinetic profiles of Gln-1062 and its cleavage product galantamine in blood and brain. Determine the brain-to-blood concentration ratios of Gln-1062 and its cleavage product galantamine, and assess the blood-brain barrier penetration capacities.
Analytical method for estimation of Gln-1062 was evaluated for its linearity, precision & accuracy and recovery in SAM blood and brain homogenate using LC/MS/MS.
Blood samples were collected from the retro-orbital plexus. 0.5 ml of blood was collected into a pre-labeled polypropylene micro centrifuge tube containing sodium citrate as the anticoagulant, and kept on ice.
Immediately after blood withdrawal, brain was perfused with phosphate buffer saline (pH 7.4), removed and frozen on dry ice.
Brain samples were thawed on ice and weighed. n appropriate volume ice cold homogenizing media (methanol:water::20:80,v/v) added. n ice, homogenized the brain sample with the polytron homogenizer and make up the volume with homogenizing media to get 1 gm of brain per 4 mL of homogenate. after homogenizing, immediately freezed the brain homogenate samples at −80° C. until analysis.

In another data set the target is T1, brain cholinesterase (Mus musculus, UniProt P21836).
T1 construct: from tissue; host or cells: mouse brain homogenate
T1 sequence (P21836 32-614): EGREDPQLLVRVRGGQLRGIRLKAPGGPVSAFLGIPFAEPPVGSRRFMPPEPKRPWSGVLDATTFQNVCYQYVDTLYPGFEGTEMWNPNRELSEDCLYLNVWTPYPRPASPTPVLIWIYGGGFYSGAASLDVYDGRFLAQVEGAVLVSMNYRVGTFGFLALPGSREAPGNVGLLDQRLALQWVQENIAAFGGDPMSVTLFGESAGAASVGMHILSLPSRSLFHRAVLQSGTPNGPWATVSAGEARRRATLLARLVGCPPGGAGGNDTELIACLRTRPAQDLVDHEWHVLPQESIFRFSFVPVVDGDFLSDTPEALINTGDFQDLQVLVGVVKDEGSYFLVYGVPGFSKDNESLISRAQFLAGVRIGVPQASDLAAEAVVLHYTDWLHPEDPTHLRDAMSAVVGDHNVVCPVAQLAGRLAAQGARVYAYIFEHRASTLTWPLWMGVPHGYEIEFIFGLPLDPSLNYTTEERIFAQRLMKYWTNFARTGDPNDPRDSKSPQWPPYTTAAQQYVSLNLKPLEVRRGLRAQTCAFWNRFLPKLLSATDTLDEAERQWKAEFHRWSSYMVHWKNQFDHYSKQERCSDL
It counts as biochemical. The note with it: mouse brain homogenate, 200 μM acetylthiocholine; pro-galantamines up to 50 μM.

Data set [1] has as its target T2, a4β2 neuronal nicotinic acetylcholine receptor (Homo sapiens, UniProt P17787+P43681).
T2 construct: expressed in transfected cells; host or cells: HEK-293
In words: Whole-cell patch clamp recording of allosteric potentiation in HEK-293 cells. It counts as cell-based. The method, then:
FIG. 4: Interaction of galantamine and pro-galantamine with a4β2 neuronal nicotinic acetylcholine receptor ectopically expressed in HEK-293 cells. The increase in response to acetylcholine in the presence of galantamine and Gln-1062, respectively, was determined by whole-cell patch clamp recording. Galantamine achieved a maximal enhancement of response of ˜40% whereas the pro-galantamine achieved a maximal enhancement of only ˜17%.
Investigation of the allosteric modulation effect of drug candidates on nicotinic acetylcholine receptors (nAChRs) expressed in HEK-293 cells by electrophysiology. Results shown as FIG. 4.
Single HEK-293 cells expressing either human α4β2, human α3β4, or chimeric chicken α7 (with mouse 5HT3) nAChR were plated on fibronectin-coated cover slips for 3 days before measurement. […] A programmable puller (Sutter, USA) was used to prepare a twin pair of ready for use pipettes. […] To evaluate an allosteric potentiating ligand (APL) effect of selected compounds on each subtype of nAChR, they were added to stimulating nicotine solutions at the following concentrations: 1, 5, 10, 50, 100, 500, 1,000, 5,000 and 10,000 nM, and solutions were applied to the cell surface during 500 ms pulses through the U-tube, and then corresponding currents, digitized to 10 kHz, were recorded for 10 s. […]
On the technique in general: In patch-clamp work, channel activity is measured electrically.

Data set [2] deals with scopolamine-induced amnesia in mice. In words: Reversal from scopolamine-induced amnesia in mice, T-maze alternation. The data set is classed as in vivo, mouse. The settings on record: i.p. The method, then:
Scopolamine induces a memory deficit that can be measured by […] alternation in a T-maze trial. The cognition enhancing drugs were i.p. injected at several different doses together with scopolamine 20 min before a T-maze trial. Recovery was measured as a function of dose, and the EC50 was determined for each drug.
Analysis of variance (ANOVA) was performed on the result data.

For data set [3] the following is noted: cited from earlier work.
For data set [4] the following is noted: unmodified drug; cited from earlier work.

T2 sequence (P43681 29-627 limits assumed): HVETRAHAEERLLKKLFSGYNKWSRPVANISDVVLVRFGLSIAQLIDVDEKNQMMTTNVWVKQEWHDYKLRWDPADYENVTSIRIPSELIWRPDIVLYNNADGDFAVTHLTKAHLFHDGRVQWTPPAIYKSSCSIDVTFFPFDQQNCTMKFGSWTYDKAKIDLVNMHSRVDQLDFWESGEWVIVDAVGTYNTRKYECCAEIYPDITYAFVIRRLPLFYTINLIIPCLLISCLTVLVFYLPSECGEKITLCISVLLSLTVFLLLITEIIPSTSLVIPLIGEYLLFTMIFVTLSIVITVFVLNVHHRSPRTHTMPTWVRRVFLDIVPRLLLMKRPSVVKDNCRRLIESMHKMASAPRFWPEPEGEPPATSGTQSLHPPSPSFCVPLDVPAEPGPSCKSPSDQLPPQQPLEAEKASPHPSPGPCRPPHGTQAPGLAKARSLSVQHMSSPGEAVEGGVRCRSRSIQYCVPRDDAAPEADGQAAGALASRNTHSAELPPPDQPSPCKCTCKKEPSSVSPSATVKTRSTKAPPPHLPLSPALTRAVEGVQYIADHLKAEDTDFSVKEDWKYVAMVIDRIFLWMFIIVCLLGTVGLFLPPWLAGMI
T2 sequence (P17787 26-502): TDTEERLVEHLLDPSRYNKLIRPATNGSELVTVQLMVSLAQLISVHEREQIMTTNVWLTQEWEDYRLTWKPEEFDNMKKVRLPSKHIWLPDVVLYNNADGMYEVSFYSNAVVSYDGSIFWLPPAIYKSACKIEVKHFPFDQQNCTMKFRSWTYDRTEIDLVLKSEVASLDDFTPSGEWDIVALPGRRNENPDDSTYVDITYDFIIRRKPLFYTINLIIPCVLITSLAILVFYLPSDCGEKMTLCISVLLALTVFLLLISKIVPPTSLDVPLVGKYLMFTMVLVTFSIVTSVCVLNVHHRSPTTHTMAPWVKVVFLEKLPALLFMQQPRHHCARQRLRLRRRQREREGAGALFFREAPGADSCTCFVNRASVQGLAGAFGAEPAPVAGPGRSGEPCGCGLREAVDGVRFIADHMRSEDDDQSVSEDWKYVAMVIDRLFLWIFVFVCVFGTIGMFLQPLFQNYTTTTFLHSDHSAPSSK
Protocol for brain cholinesterase: A 20% mouse brain homogenate was used, supplemented with 200 μM of acetylthiocholine as substrate, and the initial reaction kinetics were measured according to Riddles P W, Blakeley R L, Zerner B., “Reassessment of Ellman's reagent” Methods Enzymol.
The brain is removed from the animal (mouse), shock frozen in liquid nitrogen and stored at minus 80° C. until use. Before preparing the extract, the frozen brain is thawed on ice and the weight is determined. Ice cold buffer (130 mM NaCl, 5 mM KCl, 2.5 mM CaCl2, 1 mM MgCl2, 5 mM Glucose, 5 mM HEPES, pH 7.4) is added to the thawed mouse brain (1:4, weight to volume, resulting in a 20% brain homogenate). The tissue is then homogenized in a potter homogeniser on ice, moving the piston up and down 11 times at 240 rpm. The freshly prepared mouse brain homogenate is divided into aliquots.
A modified Ellmann's esterase test is used. Briefly the method relies on the cleavage of the substrate acetylthiocholine to acetate and thiocholine. […] The inhibition is expressed as percent of the non inhibited reaction according to following equation: […]

Compound `C=C[C@@]12C=C[C@H](O)C[C@@H]1Oc1c(OC)ccc(CNC)c12` [10,11-Seco-11,12-dehydro-galantamine, (3R,4aS,9bS)-6-Methoxy-9-methylaminomethyl-3,4,4a,9b-tetrahydro-9b-vinyl-dibenzofuran-3-ol] had a melting point of 127 to 129 °C.

As for `CCC(=O)O[C@H]1C=C[C@@]23CCN(C)Cc4ccc(OC)c(c42)O[C@H]3C1` [GLN-0978], the “Co (Brain), highest concentration achieved in mouse brain” value (“Co (Brain)” for short) in the data set “in vivo” stood at 1985 ng/mL. Also, in “in vivo” (mouse, iv, 3 mg/kg), the Kp was found to be 6.9.

Regarding `COc1ccc2c3c1O[C@H]1C[C@@H](OC(=O)C(C)C)C=C[C@@]31CCN(C)C2` [GLN-0979], the “Co (Brain)” value in “in vivo” stood at 3166 ng/mL. In addition, the Kp in “in vivo” (mouse, iv, 3 mg/kg) stood at 6.2.

For the compound `CCCCCC(=O)O[C@H]1C=C[C@@]23CCN(C)Cc4ccc(OC)c(c42)O[C@H]3C1` [GLN-0993], the “Co (Brain)” value in “in vivo” was 2150 ng/mL. The compound further displayed a Kp in the data set “in vivo” (mouse, iv, 3 mg/kg) of 6.4.

In the case of `COc1ccc2c3c1OC1C[C@@H](OC(=O)c4ccccc4)C=C[C@@]31CCN(C)C2` (stereo partly drawn) [GLN-1062, (4aS,6R,8aS)-4a,5,9,10,11,12-Hexahydro-3-methoxy-11-methyl-6H-benzofuro[3a,3,2-ef][2]benzazepin-6-ol, benzoate (ester)], the Kp in “in vivo” (SAM, mouse) was more than 19; in the data set “in vivo” (mouse, iv, 3 mg/kg), 19.3. Besides, the “Co (Brain)” value in “in vivo” was found to be 4812 ng/mL. Moreover, in the data set “in vivo” (mouse, 3 mg/kg, FIG. 5b), the “concentration of GLN-1062 in blood at start of curve” value was “about 0.3 μg/g”. The “inhibition of brain cholinesterase” value against brain cholinesterase was “little, if any cholinesterase inhibitory activity”. Moreover, the “maximal enhancement of response to acetylcholine” value in data set [1] is listed as approximately 17%. For the same compound, the “potency relative to galantamine in reversing scopolamine-induced amnesia” value in data set [2] is reported as “approximately 4 times”.

Regarding `CCC(C)C(=O)O[C@H]1C=C[C@@]23CCN(C)Cc4ccc(OC)c(c42)OC3C1` (stereo partly drawn) [GLN-1067], the “Co (Brain)” value in the data set “in vivo” was 4665 ng/mL. In “in vivo” (mouse, iv, 3 mg/kg), this compound registered a Kp of 7.5.

Take `COc1ccc2c3c1OC1C[C@@H](OC(=O)C4CC4)C=C[C@@]31CCN(C)C2` (stereo partly drawn) [GLN-1076]: the “Co (Brain)” value in “in vivo” is 1245 ng/mL. This compound also came in with a Kp in the data set “in vivo” (mouse, iv, 3 mg/kg) of 1.1.

As for `COc1ccc2c3c1O[C@H]1C[C@@H](O)C=C[C@@]31CCN(C)C2` [Galantamine], the “Co (Brain)” value in the data set “in vivo” turned out to be 1741 ng/mL. In “in vivo” (mouse, 3 mg/kg), the Kp was approximately 1.3. The “maximal enhancement of response to acetylcholine” value in data set [1] is reported as approximately 40%. In addition, the “tissue to plasma ratio (T/P), spleen” value in data set [3] (female rat) is approximately 20. In addition, in data set [3] (male and female rat), the “tissue to plasma ratio (T/P), kidney” value is reported as 10-15; the “tissue to plasma ratio (T/P), salivary and adrenal gland” value was 7-14. In addition, in data set [3] (rat), the “brain to plasma ratio (T/P)” value is approximately 1.5; the “tissue to plasma ratio (T/P), lung, liver, heart, skeletal muscle and testes” value is reported as 2-4. In addition, in data set [4], the brain-to-plasma ratio is reported as approximately 1.3.
